These results are taken from patent publication US12162867B2, “Inhibitors of RNA helicase DHX9 and uses thereof” (ACCENT THERAPEUTICS, INC., priority 2022, dated 2024).

The first assay concerns circBRIP1 in HCT116 cells. Put plainly: DHX9 circBRIP1 cellular target engagement SYBR Green assay (qPCR). Type of assay: cell-based. Particulars: Homo sapiens, HCT-116, circBRIP1, HCT116 cells; SyBr assay (marked ^+); read-out: DHX9 Cellular Target Engagement EC50. A general note: Real-time PCR tracks product formation cycle by cycle.
On to `CS(=O)(=O)Nc1cc(Cl)cc(NC(=O)c2cc3ccc(Cl)cc3s2)c1` [Example 293], for which the EC50 (commonly the concentration that produces a half-maximal response) is greater than 10 µM. On the same count and under the same terms, in the case of `CS(=O)(=O)Nc1cc(Cl)cc(NC(=O)c2cc3ccc(F)cc3s2)c1` [Example 294] it was greater than 10 µM; in that of `CS(=O)(=O)Nc1cc(Cl)cc(NC(=O)c2cc3cc(F)ccc3s2)c1` [Example 295], greater than 10 µM. On the same count and under the same terms, for `CS(=O)(=O)Nc1cc(Cl)cc(NC(=O)c2cc3c(F)cccc3s2)c1` [Example 296] the value was 1.14 µM.

For the molecule `CS(=O)(=O)Nc1cc(Cl)cc(NC(=O)c2cc3cccc(F)c3s2)c1` [Example 297], the EC50 was greater than 10 µM. Same read-out and setting: in the case of `CS(=O)(=O)Nc1cc(Cl)cc(NC(=O)c2cc3cc(Cl)ccc3s2)c1` [Example 298] it was greater than 10 µM.

For the molecule `CS(=O)(=O)Nc1cc(Cl)cc(NC(=O)c2cc3ccc(Cl)cn3c2)c1` [Example 299], the EC50 was greater than 10 µM.

In the case of `Cc1ccc2cc(C(=O)Nc3cc(Cl)cc(NS(C)(=O)=O)c3)cn2c1` [Example 300], the EC50 came out at 3.94 µM. Same read-out and setting: in the case of `CS(=O)(=O)Nc1cc(Cl)cc(NC(=O)c2cc3c(=O)[nH]ccn3c2)c1` [Example 301] it was 2.41 µM. Same read-out and setting: for `CS(=O)(=O)Nc1cc(Cl)cc(NC(=O)c2cc3c(C(F)(F)F)cccn3c2)c1` [Example 302] the value was 1.93 µM. Still for that read-out and setting: for `COc1cccc2cc(C(=O)Nc3cc(Cl)cc(NS(C)(=O)=O)c3)sc12` [Example 303] the value was greater than 10 µM; for `Cc1cccc2cc(C(=O)Nc3cc(Cl)cc(NS(C)(=O)=O)c3)cn12` [Example 304], 5.98 µM. For the molecule `CS(=O)(=O)Nc1cc(Cl)cc(NC(=O)c2cc3c(F)cccn3c2)c1` [Example 305], the EC50 turned out to be 3.33 µM.

Take `CN1CCC(n2cc(C(=O)Nc3cc(Cl)cc(NS(C)(=O)=O)c3)cn2)CC1=O` (centres unmarked) [Example 307]: the EC50 is greater than 10 µM. Same read-out and setting: in the case of `CS(=O)(=O)Nc1cc(Cl)cc(NC(=O)c2cnn(CCc3ccccc3)c2)c1` [Example 308] it was greater than 10 µM. The same measure, in the same setting: in the case of `CS(=O)(=O)Nc1cc(Cl)cc(NC(=O)c2cnn(C3CCCC3)c2)c1` [Example 309] it was 3.73 µM. For `CC(=O)NC1CC2(C1)CC(n1cc(C(=O)Nc3cc(Cl)cc(NS(C)(=O)=O)c3)cn1)C2` (centres unmarked) [Example 310], the EC50 is greater than 10 µM. Still for that read-out and setting: in the case of `CN1CC2(CC(n3cc(C(=O)Nc4cc(Cl)cc(NS(C)(=O)=O)c4)cn3)C2)C1` [Example 311] it was 3.98 µM.

As for `CS(=O)(=O)Nc1cc(Cl)cc(NC(=O)c2cnn(C3CC4(C3)CN(CC(F)(F)F)C4)c2)c1` [Example 312], the EC50 came out at 9.97 µM.

On to `CC(=O)N1CC2(CC(n3cc(C(=O)Nc4cc(Cl)cc(NS(C)(=O)=O)c4)cn3)C2)C1` [Example 313], for which the EC50 was greater than 10 µM. On to `CC1(C)CC(n2cc(C(=O)Nc3cc(Cl)cc(NS(C)(=O)=O)c3)cn2)CCN1` (centres unmarked) [Example 315], for which the EC50 is greater than 10 µM. On the same count and under the same terms, in the case of `CS(=O)(=O)Nc1cc(Cl)cc(NC(=O)c2cnn(C3CCN(CC(F)(F)F)CC3)c2)c1` [Example 316] it was 4.92 µM; in that of `CC(=O)N1CCC(n2cc(C(=O)Nc3cc(Cl)cc(NS(C)(=O)=O)c3)cn2)CC1` [Example 317], greater than 10 µM. On the same count and under the same terms, for `CS(=O)(=O)Nc1cc(Cl)cc(NC(=O)c2cnn(C3CC4(CC(N)C4)C3)c2)c1` (centres unmarked) [Example 319] the value was greater than 10 µM.

`Cc1cc(C(=O)Nc2cc(Cl)cc(NS(C)(=O)=O)c2)cn1-c1ncc(N2CCOCC2)cc1F` [Example 320]: the EC50 came out at 0.0961 µM. On the same count and under the same terms, for `COc1cccc2sc(C(=O)Nc3cc(Cl)cc(NS(C)(=O)=O)c3)cc12` [Example 321] the value was 0.241 µM; for `Cc1cn2cc(C(=O)Nc3cc(Cl)cc(NS(C)(=O)=O)c3)cc2c(C)n1` [Example 322], greater than 10 µM. As for `CS(=O)(=O)Nc1cc(Cl)cc(NC(=O)c2cc3c(C(F)(F)F)cccc3s2)c1` [Example 323], the EC50 was greater than 10 µM.

With `CS(=O)(=O)Nc1cc(Cl)cc(NC(=O)c2cc3c(F)c(F)ccc3s2)c1` [Example 324], the EC50 was determined as 5.9 µM. The same measure, in the same setting: for `CS(=O)(=O)Nc1cc(Cl)cc(NC(=O)c2cc3c(F)ccc(F)c3s2)c1` [Example 325] the value was 6.09 µM. Still for that read-out and setting: for `CS(=O)(=O)Nc1cc(Cl)cc(NC(=O)c2cc3cc(C(F)(F)F)ccc3s2)c1` [Example 326] the value was greater than 10 µM; for `COc1ccc2cc(C(=O)Nc3cc(Cl)cc(NS(C)(=O)=O)c3)sc2c1` [Example 327], 3.54 µM. The same measure, in the same setting: for `Cc1cc(C)c2cc(C(=O)Nc3cc(Cl)cc(NS(C)(=O)=O)c3)cn2c1` [Example 328] the value was 2.67 µM; for `Cc1cccn2cc(C(=O)Nc3cc(Cl)cc(NS(C)(=O)=O)c3)cc12` [Example 329], 4.98 µM. For `CS(=O)(=O)Nc1cc(Cl)cc(NC(=O)c2cc3cnccn3c2)c1` [Example 330], the EC50 came out at 4.87 µM. On to `Cc1ccc2sc(C(=O)Nc3cc(Cl)cc(NS(C)(=O)=O)c3)cc2c1` [Example 331], for which the EC50 stood at 3.75 µM.

Take `CS(=O)(=O)Nc1cc(Cl)cc(NC(=O)c2cc3c(Cl)cccc3s2)c1` [Example 332]: the EC50 was determined as 3.34 µM. Same read-out and setting: in the case of `Cc1cccnc1-c1cc(C(=O)Nc2cc(F)cc(NS(C)(=O)=O)c2)sc1C` [Example 333] it was 0.421 µM; in that of `Cc1cccnc1-c1csc(C(=O)Nc2cc(F)cc(NS(C)(=O)=O)c2)c1` [Example 334], 0.251 µM; in that of `CS(=O)(=O)Nc1cc(Cl)cc(NC(=O)c2cc(-c3ncc(F)cn3)cs2)c1` [Example 338], 0.126 µM. `CCS(=O)(=O)Nc1cc(Cl)cc(NC(=O)c2cc(-c3ncc(F)cn3)cs2)c1` [Example 343]: the EC50 was 0.189 µM.

Turning to `CCS(=O)(=O)Nc1cc(Cl)cc(NC(=O)c2cc(-c3ncc(F)cn3)c(C)s2)c1` [Example 344], the EC50 came out at 0.153 µM.

On to `CS(=O)(=O)Nc1cc(Cl)cc(NC(=O)c2cc(-c3ncccc3CC(=O)N3CCC3)cs2)c1` [Example 382], for which the EC50 came out at 0.64 µM. Still for that read-out and setting: in the case of `CS(=O)(=O)Nc1cc(Cl)cc(NC(=O)c2cc(-c3ncccc3CC(=O)N3CCCC3)cs2)c1` [Example 383] it was 0.557 µM. Still for that read-out and setting: for `CS(=O)(=O)Nc1cc(Cl)cc(NC(=O)c2cc(-c3ncccc3Cc3ncccn3)cs2)c1` [Example 384] the value was 0.122 µM. As for `Cc1sc(C(=O)Nc2cc(Cl)cc(NS(C)(=O)=O)c2)cc1-c1ncccc1CC(=O)N(C)C` [Example 385], the EC50 worked out at 1.33 µM.

For the molecule `CS(=O)(=O)Nc1cc(Cl)cc(NC(=O)c2cnn(-c3ncccc3-c3cncnc3)c2)c1` [Example 387], the EC50 is greater than 10 µM.

In the case of `CS(=O)(=O)Nc1cc(Cl)cc(NC(=O)c2cnn(-c3cnc(N4CCOCC4)cn3)c2)c1` [Example 388], the EC50 was found to be 6.53 µM.

Staying with this assay, now noted: Homo sapiens, HCT-116, circBRIP1, HCT116 cells; ^+ SyBr assay was used; read-out: DHX9 Cellular Target Engagement EC50.
For `CS(=O)(=O)Nc1cc(Cl)cc(NC(=O)c2cnn(-c3ncccc3-c3cncc(F)c3)c2)c1` [Example 392], the EC50 amounted to 2.8 µM. Turning to `COc1cc(F)cnc1-n1cc(C(=O)Nc2cc(Cl)cc(NS(C)(=O)=O)c2)cc1C` [Example 393], the EC50 amounted to 0.133 µM.

With `CS(=O)(=O)Nc1cc(Cl)cc(NC(=O)c2cnn(-c3ncc(N4CCOCC4)cn3)c2)c1` [Example 394], the EC50 turned out to be 4.23 µM. Same read-out and setting: in the case of `Cc1cc(C(=O)Nc2cc(Cl)cc(NS(C)(=O)=O)c2)cn1-c1ncc(N2CCOCC2)cc1F` [Example 412] it was 0.0961 µM; in that of `CS(=O)(=O)Nc1cc(Cl)cc(NC(=O)c2cnn(C3CCCC3OCc3ccccc3)c2)c1` (centres unmarked) [Example 424], 4.11 µM.
